Measured values from publication PMC8226722, “Comparison of Solution Chemical Properties and Biological Activity of Ruthenium Complexes of Selected β-Diketone, 8-Hydroxyquinoline and Pyrithione Ligands” (Pharmaceuticals, 2021).

Columns and labels:
[1] = system: Chlamydia trachomatis; test: Antichlamydia activity in HeLa cells, direct qPCR; format: cell-based; conditions: MOI 0.2, 48 h post infection
Method: Then the Hela cells were infected with C. trachomatis at multiplicity of infection (MOI) 0.2, and were treated with different concentrations of the complexes for 24 h. After 48 h post infection, the cells were lysed and the chlamydial growth reducing effect of the complexes was evaluated by comparing the chlamydial genom concentration to that seen on untreated/infected HeLa cells. The C. trachomatis DNA concentration was measured by direct quantitative PCR (qPCR). The average cycle threshold (Ct) numbers were calculated and –Ct values are shown at the various complex concentrations in Figure 2 for 7 and 8 (and Figure S2 for the rest of the complexes). The maximum C. trachomatis growth corresponded to a DNA concentration of Ct ~19 value as detected by direct qPCR, as well.
The Chlamydia trachomatis strain was propagated and partially purified as described previously with some modifications. The infected cells were stained with monoclonal antichlamydia lipopolysaccharide (LPS) antibody (AbD Serotec, Oxford, UK) and fluorescein isothiocyanate-labeled anti-mouse IgG (Sigma-Aldrich) and the number of cells containing chlamydial inclusions was counted under a UV microscope, and the titer was expressed as the number of inclusion forming units (IFU)/mL. […]

[2] = system: Human herpes simplex virus-2 (HSV-2); test: Antiviral activity in Vero cells, direct qPCR; format: cell-based
Method: Then Vero cells were infected with HSV-2 (at MOI 0.2) and were treated with the complexes for 24 h. After 24 h post infection, the cells were lysed and the virus yield reducing effect of the compounds was evaluated by comparing the yield to that seen on untreated Vero cells. The HSV-2 DNA concentration was measured by direct qPCR.
Human herpes simplex virus-2 (HSV-2) strain was (gift from Dr. Ilona Mucsi, University of Szeged, Szeged, Hungary) grown in Vero (ATCC) cells and the infectivity was measured by using the plaque titration method. The virus titer was expressed in plaque forming units (PFU).
The plates were incubated for at 37 °C, 5% CO2 for 24 h. The plates were evaluated with quantitative PCR.
At the end of the infection (24 h for HSV-2, 48 h for C. trachomatis) the supernatants of the cells were removed and the cells were washed with PBS twice, and finally 100 μL in sucrose-phosphate-glutamic acid buffer (SPG) was measured into the wells, and the cells were subjected to two freeze-thaw cycles. The mixed cell lysates were used as a template in the qPCR as described previously. Briefly, qPCR was performed with the 5× HOT FIREPol®EvaGreen®qPCR Supermix (Solis Solis BioDyne, Tartu, Estonia) and C. trachomatis pykF gene specific primer pair in a Bio-Rad CFX96 real time PCR system. The pykF primer sequences were the following: 5′-[…]-3′, 5′-[…]-3′. For each sample the cycle threshold (Ct) number corresponding to the cycle where the amplification curve crossed the base line was determined. For the quantitative measurement of HSV-2 growth a similar qPCR method was used as was applied for C. trachomatis. The HSV-2 gD2 gene specific primer pair (gD2-F: 5′-[…]-3′, gD2-R 5′-[…]-3′ was used with a 69 °C annealing-extension temperature.

[3] = system: ovarian carcinoma CH1; design: method as in PMID 25856666; conditions: cited from earlier work
[4] = system: osteosarcoma MG63 cells; design: method as in PMID 25856666; conditions: cited from earlier work
[5] = system: Vero cells; test: MTT cytotoxicity in Vero cells (maximum non-toxic concentration); conditions: 24 h, up to 100 µM
Method: The antiviral effect of complexes against HSV-2 was screened using Vero cells (originally isolated from kidney epithelial cells) to host the growing viruses.
(§1) HeLa 229 cells (ATCC) and Vero cells (ATCC) were cultured in minimal essential medium (MEM) (Sigma, Steinheim, Germany) with Earle salts supplemented with 10% heat-inactivated fetal bovine serum (FBS) (Gibco; ThermoFisher Scientific, Inc., Waltham, MA, USA), 2 mM L-glutamine, 1× non-essential amino acids, 8 mM HEPES, 25 μg/mL gentamycin and 1 µg/mL fungisone. The cells were incubated for 1 h at room temperature to reduce the edge effect and then overnight at 37 °C, 5% CO2 to obtain a 90% confluent cell layer.
(§2) The density of cells was 4 × 10^4 cells/well in 100 µL of MEM with Earle salts supplemented with 10% heat-inactivated FBS, 2 mM L-glutamine, 1× MEM vitamins, 1× non-essential amino acids, 0.005% Na-pyruvate, 25 µg/mL gentamycin, 1 µg/mL fungisone). The plates were incubated for 1 h room temperature and then overnight at 37 °C, 5% CO2. Next day, when the cells reached a ~90% confluency, the medium was supplemented with the serial 2-fold dilutions of the complexes in three parallel wells for each concentration. […] After 24 h incubation for Vero cells and 48 h incubation for HeLa cells, 10 µL of the MTT (Sigma, Steinheim, Germany) labelling reagent (final concentration 0.5 mg/mL) was added to each well and the plate was incubated for 4 h at 37 °C, 5% CO2. After the incubation, 100 µL of the solubilisation solution (10% SDS in 1 M HCl) was added into each well, and the plate was allowed to stand overnight in the incubator at 37 °C, 5% CO2.

[6] = system: HeLa 229 human cervix carcinoma cells; test: MTT cytotoxicity in HeLa 229 cells (maximum non-toxic concentration); conditions: 48 h
Method: as §1, §2

[7] = system: array of cancer cell lines including cisplatin- and adriamycin-resistant strains; design: method as in PMID 34065335; conditions: cited from earlier work
[8] = Shake-flask n-octanol/water distribution coefficient; format: physicochemical; conditions: 25.0 °C, 20 mM phosphate buffer
Method: Chloride ion concentrations of 4, 24 and 100 mM were chosen according to the chloride content of the nucleus, cytosol and blood serum, respectively. […] Then parallel artificial membrane permeability assay (PAMPA) was used to estimate the ability of the complexes to penetrate membranes by passive diffusion and the effective passive permeability coefficients (Peff) obtained for complexes 1–3 are shown in Table 4 (in case of 4, there are no data due to formation of precipitate).
Distribution coefficients at physiological pH (D7.4) of the complexes were determined by the traditional shake-flask method in n-octanol/buffered aqueous solution at pH 7.40 (20 mM phosphate buffer) at various chloride concentrations and at 25.0 ± 0.2 °C using UV-vis detection as described in our former works [37, 38, 42]. PAMPA was applied for the complexes with a Gentest pre-coated PAMPA Plate System (Corning, Corning, NY, USA) [56]. Briefly, a 96-well filter plate was used as the permeation acceptor and the 96-well bottom plate was used as the permeation donor. For simplicity, PBS was used both as donor and acceptor buffer throughout this study. […] Peff values were calculated according to the equation reported by Yu et al. [57].

[9] = system: hormone dependent MCF-7 breast cancer cell line; design: method as in PMID 27357845, PMID 31461189, PMID 24189185; conditions: read-out: half maximal effective concentration, MCF-7; cited from earlier work

| Structure (SMILES) | chlamydial growth difference between treated and untreated cells [1] | IC50 [3] [µM] | IC50 [4] [µM] | toxicity in Vero cells [5] | maximum non-toxic concentration, HeLa 229 [6] [µM] | logD7.4 ([8]; pH 7.4, c(KCl) 4 mM) | logD7.4 ([8]; pH 7.4, c(KCl) 24 mM) | logD7.4 ([8]; pH 7.4, c(KCl) 100 mM) | other results |
| --- | --- | --- | --- | --- | --- | --- | --- | --- | --- |
| Cc1ccc(C(C)C)cc1.O=C(C=C([O-])C(F)(F)F)c1ccc(Cl)cc1.[Cl-].[Ru+2] [complex 7] | ca. 101 fold | 17 | 64 | did not produce significant toxicity at any of the concentrations | 50 |  |  |  | HSV-2 growth difference ([2]; HSV-2 MOI 0.2, 24 h): ca. 237 fold; qPCR cycles difference (dCT) ([2]; HSV-2 MOI 0.2, 24 h): ~ 7.89 qPCR cycles; IC50 ([2]; MOI 0.2, 24 h, qPCR, read-out: IC50 HSV-2 growth): ~25 µM; IC90 ([2]; MOI 0.2, 24 h, qPCR, read-out: IC90 HSV-2 growth): 50 to 100 µM |
| C1N2CN3CN1CP(C2)C3.Cc1ccc(C(C)C)cc1.F[P-](F)(F)(F)(F)F.[O-]n1ccc2ccccc2c1=S.[Ru+2] [complex 4] |  |  |  |  |  |  |  |  | concentration up to which inactive, cancer cell line panel [7]: > 50 µM |
| C1N2CN3CN1CP(C2)C3.Cc1ccc(C(C)C)cc1.F[P-](F)(F)(F)(F)F.O=C(C=C([O-])C(F)(F)F)c1ccc(Cl)cc1.[Ru+2] [complex 8] | ca. 155 fold | 8 | 41 | did not produce significant toxicity at any of the concentrations | 50 |  |  |  |  |
| Cc1ccc(C(C)C)cc1.[Cl-].[O-]n1ccccc1=S.[Ru+2] [complex 1] |  |  |  |  |  | −0.43 ± 0.09 | −0.10 ± 0.05 | +0.31 ± 0.03 | EC50 [9]: 3.8 µM |
| Cc1ccc(C(C)C)cc1.[Cl-].[O-]n1ccc2ccccc2c1=S.[Ru+2] [complex 3] |  |  |  |  |  | +0.92 ± 0.06 | +1.22 ± 0.04 | +1.37 ± 0.06 |  |
